Assay results taken from publication PMC7181660, “A novel specific PERK activator reduces toxicity and extends survival in Huntington's disease models” (Scientific Reports, 2020).
Like-named read-outs stand apart in the source and are kept apart here.

How the values were obtained:
Test in all cases: biochemical
Assay type in all cases: biochemical
panel of 391 kinases [1] = biological target: panel of 391 kinases (Homo sapiens, UniProt P07949); details: RET, MK-28 1 µM, ATP 1 µM
panel of 391 kinases [2] = biological target: panel of 391 kinases (Homo sapiens, UniProt P08631); details: HCK, MK-28 1 µM, ATP 1 µM
panel of 391 kinases [3] = biological target: panel of 391 kinases (Homo sapiens, UniProt P15735); details: PHKg2, MK-28 1 µM, ATP 1 µM
panel of 391 kinases [4] = biological target: panel of 391 kinases (Homo sapiens, UniProt P17252); details: PKCa, MK-28 1 µM, ATP 1 µM
panel of 391 kinases [5] = biological target: panel of 391 kinases (Homo sapiens, UniProt P35968); details: KDR/VEGFR2, MK-28 1 µM, ATP 1 µM
panel of 391 kinases [6] = biological target: panel of 391 kinases (Homo sapiens, UniProt P49841); details: GSK3b, MK-28 1 µM, ATP 1 µM
panel of 391 kinases [7] = biological target: panel of 391 kinases (Homo sapiens, UniProt P51813); details: BMX/ETK, MK-28 1 µM, ATP 1 µM
panel of 391 kinases [8] = biological target: panel of 391 kinases (Homo sapiens, UniProt Q07912); details: ACK1, MK-28 1 µM, ATP 1 µM
panel of 391 kinases [9] = biological target: panel of 391 kinases (Homo sapiens, UniProt Q13043); details: MST1/STK4, MK-28 1 µM, ATP 1 µM
panel of 391 kinases [10] = biological target: panel of 391 kinases (Homo sapiens, UniProt Q13188); details: MST2/STK3, MK-28 1 µM, ATP 1 µM
panel of 391 kinases [11] = biological target: panel of 391 kinases (Homo sapiens, UniProt Q15119); details: kinase PDK2/PDHK2, compound at 1 µM, single dose in duplicates, 1 µM ATP
panel of 391 kinases [12] = biological target: panel of 391 kinases (Homo sapiens, UniProt Q15835); details: GRK1, MK-28 1 µM, ATP 1 µM
panel of 391 kinases [13] = biological target: panel of 391 kinases (Homo sapiens, UniProt Q16288); details: TRKC, MK-28 1 µM, ATP 1 µM
panel of 391 kinases [14] = biological target: panel of 391 kinases (Homo sapiens, UniProt Q32MK0); details: MYLK3, MK-28 1 µM, ATP 1 µM
panel of 391 kinases [15] = biological target: panel of 391 kinases (Homo sapiens, UniProt Q8IY84); details: NIM1, MK-28 1 µM, ATP 1 µM
panel of 391 kinases [16] = biological target: panel of 391 kinases (Homo sapiens, UniProt Q96RR4); details: CAMKK2, MK-28 1 µM, ATP 1 µM
panel of 391 kinases [17] = biological target: panel of 391 kinases (Homo sapiens, UniProt Q9H0K1); details: SIK2, MK-28 1 µM, ATP 1 µM
panel of 391 kinases [18] = biological target: T1, panel of 391 kinases (Homo sapiens, UniProt Q9NZJ5)
T1 sequence (Q9NZJ5 30-1116): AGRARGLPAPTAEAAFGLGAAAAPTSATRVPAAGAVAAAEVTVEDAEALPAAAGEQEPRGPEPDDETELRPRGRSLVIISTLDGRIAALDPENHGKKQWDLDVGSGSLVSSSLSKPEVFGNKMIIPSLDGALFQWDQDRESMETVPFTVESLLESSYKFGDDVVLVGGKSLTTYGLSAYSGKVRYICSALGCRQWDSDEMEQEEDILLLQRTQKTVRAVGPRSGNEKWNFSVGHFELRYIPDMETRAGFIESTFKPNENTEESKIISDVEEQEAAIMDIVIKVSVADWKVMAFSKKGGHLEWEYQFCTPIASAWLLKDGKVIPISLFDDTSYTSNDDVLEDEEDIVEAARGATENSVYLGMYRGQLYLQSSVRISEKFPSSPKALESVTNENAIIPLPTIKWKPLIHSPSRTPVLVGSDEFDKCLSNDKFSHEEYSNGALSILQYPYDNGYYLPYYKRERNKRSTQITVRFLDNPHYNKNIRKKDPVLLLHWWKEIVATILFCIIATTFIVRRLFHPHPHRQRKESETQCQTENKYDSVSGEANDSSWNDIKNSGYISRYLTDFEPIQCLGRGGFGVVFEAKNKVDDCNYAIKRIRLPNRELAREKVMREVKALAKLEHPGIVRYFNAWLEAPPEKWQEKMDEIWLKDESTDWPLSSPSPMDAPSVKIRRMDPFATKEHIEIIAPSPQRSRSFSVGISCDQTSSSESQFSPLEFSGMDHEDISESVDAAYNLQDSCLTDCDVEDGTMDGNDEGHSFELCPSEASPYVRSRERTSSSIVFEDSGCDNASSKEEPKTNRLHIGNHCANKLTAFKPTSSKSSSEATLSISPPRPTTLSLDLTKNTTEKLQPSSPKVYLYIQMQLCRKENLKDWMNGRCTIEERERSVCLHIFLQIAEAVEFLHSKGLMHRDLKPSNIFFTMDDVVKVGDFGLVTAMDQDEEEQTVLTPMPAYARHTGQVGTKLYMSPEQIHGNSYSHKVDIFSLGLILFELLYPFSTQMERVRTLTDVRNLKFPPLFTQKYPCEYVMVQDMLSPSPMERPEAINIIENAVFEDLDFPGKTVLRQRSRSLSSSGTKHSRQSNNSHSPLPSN

[19] = read-out: % Enzyme Activity (relative to DMSO controls)

In the case of CN(/N=C\c1ccc(O)c(O)c1)c1nc(-c2ccccc2)cc(-c2ccccc2)n1 [MK-28], the “% Enzyme Activity (relative to DMSO controls)” value (panel of 391 kinases [1]) is reported as 98.07%, the remaining activity at 1 µM (panel of 391 kinases [1]; [19]) is reported as 99.2% and the “% Enzyme Activity (relative to DMSO controls)” value (panel of 391 kinases [2]) is reported as 73.97%. The remaining activity at 1 µM (panel of 391 kinases [2]; [19]) was 75.6%, the “% Enzyme Activity (relative to DMSO controls)” value (panel of 391 kinases [3]) was 95.93% and the remaining activity at 1 µM (panel of 391 kinases [3]; [19]) was 96.2%. For the same molecule, the “% Enzyme Activity (relative to DMSO controls)” value (panel of 391 kinases [4]) was 89.76%, the remaining activity at 1 µM (panel of 391 kinases [4]; [19]) was 92.7% and the “% Enzyme Activity (relative to DMSO controls)” value (panel of 391 kinases [5]) was 98.38%. For the same molecule, the remaining activity at 1 µM (panel of 391 kinases [5]; [19]) was 99.8%, the “% Enzyme Activity (relative to DMSO controls)” value (panel of 391 kinases [6]) was 63.98% and the remaining activity at 1 µM (panel of 391 kinases [6]; [19]) was 70.3%. For the same molecule, the “% Enzyme Activity (relative to DMSO controls)” value (panel of 391 kinases [7]) was 100.53%, the remaining activity at 1 µM (panel of 391 kinases [7]; [19]) was 102% and the “% Enzyme Activity (relative to DMSO controls)” value (panel of 391 kinases [8]) was 98.95%. The remaining activity at 1 µM (panel of 391 kinases [8]; [19]) was 113%, the “% Enzyme Activity (relative to DMSO controls)” value (panel of 391 kinases [9]) was 85.69% and the remaining activity at 1 µM (panel of 391 kinases [9]; [19]) was 93.7%. The “% Enzyme Activity (relative to DMSO controls)” value (panel of 391 kinases [10]) was 100.15%, the remaining activity at 1 µM (panel of 391 kinases [10]; [19]) was 101% and the “% Enzyme Activity (relative to DMSO controls)” value (panel of 391 kinases [11]) was 99.55%. For the same molecule, the remaining activity at 1 µM (panel of 391 kinases [11]; [19]) was 103%, the “% Enzyme Activity (relative to DMSO controls)” value (panel of 391 kinases [12]) was 96.61% and the remaining activity at 1 µM (panel of 391 kinases [12]; [19]) was 102%. For the same molecule, the “% Enzyme Activity (relative to DMSO controls)” value (panel of 391 kinases [13]) was 91.11%, the remaining activity at 1 µM (panel of 391 kinases [13]; [19]) was 92.9% and the “% Enzyme Activity (relative to DMSO controls)” value (panel of 391 kinases [14]) was 104.33%. For the same molecule, the remaining activity at 1 µM (panel of 391 kinases [14]; [19]) was 106%, the “% Enzyme Activity (relative to DMSO controls)” value (panel of 391 kinases [15]) was 98.00% and the remaining activity at 1 µM (panel of 391 kinases [15]; [19]) was 104%. The “% Enzyme Activity (relative to DMSO controls)” value (panel of 391 kinases [16]) was 93.50%, the remaining activity at 1 µM (panel of 391 kinases [16]; [19]) was 97.2% and the “% Enzyme Activity (relative to DMSO controls)” value (panel of 391 kinases [17]) was 93.76%. The remaining activity at 1 µM (panel of 391 kinases [17]; [19]) was 97.5%, the remaining activity at 1 µM (panel of 391 kinases [18]; 1 μM, duplicate, 391-kinase panel, read-out: PERK (EIF2AK3) activity, % of the control) was 181% and the “% Enzyme Activity (relative to DMSO controls)” value (panel of 391 kinases [18]; kinase EIF2AK3, compound at 1 µM, single dose in duplicates, 1 µM ATP) was 175.07%. The remaining activity at 1 µM (panel of 391 kinases [18]; kinase EIF2AK3, compound at 1 µM, single dose in duplicates, 1 µM ATP, read-out: % Enzyme Activity (relative to DMSO controls)) was 188%.
